From patent US9976141B2, “Compositions and methods for inhibiting gene expression of Hif2alpha” (Arrowhead Madison Inc., priority 2015, dated 2018)

What follows are substances tested on human (tumor) Hif2α (EPAS1) mRNA (assay: Hif2α knockdown in orthotopic RCC tumor bearing mice, single injection of RNAi trigger-delivery polymer conjugate, RT-qPCR (Table 7)). Conditions: RNAi trigger 80 μg, polymer 126 400 μg; single tail vein injection; relative to isotonic glucose.
Format: in vivo
Method: A pCR3.1 expression vector expressing the reporter gene secreted alkaline phosphatase (SEAP) under the CMV promoter was prepared by directional cloning of the SEAP coding sequence PCR amplified from Clontech's pSEAP2-basic vector. Convenient restriction sites were added onto primers used to amplify the SEAP coding sequence for cloning into the pCR3.1 vector (Invitrogen). The resultant construct pCR3-SEAP was used to create a SEAP-expressing A498 ccRCC cell line. Briefly, pCR3-SEAP plasmid was transfected into A498 ccRCC cells by electroporation following manufacturer's recommendation. Stable transfectants were selected by G418 resistance. Selected A498-SEAP clones were evaluated for SEAP expression and integration stability.
Female athymic nude mice were anesthetized with ˜3% isoflourane and placed in the right lateral decubitus position. A small, 0.5-1 cm, longitudinally abdominal incision in the left flank was made. Using a moist cotton swab, the left kidney was lifted out of the peritoneum and gently stabilized. Just before injection, a 1.0 ml syringe was filled with the cell/Matrigel mixture and a 27 gauge needle catheter was attached to the syringe tip. The filled syringe was then attached to a syringe pump (Harvard Apparatus, model PHD2000) and primed to remove air. The tip of a 27-gauge needle catheter attached to a syringe was inserted just below the renal capsule near the caudal pole and the tip of the needle was then carefully advanced cranially along the capsule 3-4 mm. A 10 μl aliquot of 2:1 (vol:vol) cell/matrigel mixture containing about 300,000 cells was slowly injected into the kidney parenchyma using a syringe pump. The needle was left in the kidney for 15-20 seconds to ensure the injection was complete. The needle was then removed from the kidney and a cotton swab was placed over the injection site for 30 seconds to prevent leakage of the cells or bleeding. The kidney was then gently placed back into the abdomen and the abdominal wall was closed. Serum was collected every 7-14 days after implantation to monitor tumor growth using a commercial SEAP assay kit. For most studies, tumor mice were used 5-6 weeks after implantation, when tumor measurements were typically around 4-8 mm.
RGD targeted HiF2α-RNAi trigger delivery conjugates. Delivery polymers were modified using RGD-PEG-HyNic, RGD-PEG-ACit-PNP, or RDG-PEG-FCitFP-TFP and PEG-dipeptide modifying agents. The indicated amount of polymer 126 or 100A polymer was modified with 8×PEG12-ACit-PABC-PNP/0.5× aldehyde-PEG24-FCit-PABC-PNP (with RGD mimic #1-PEG-HyNic using protocol #1) and the indicated amount of the indicated Hif2α RNAi trigger. Polymer 064 was modified according to protocol 7. Kidney RCC tumor-bearing mice were generated as described and treated with a single tail vein injection of isotonic glucose (G1) or the indicated Hif2α RNAi trigger-delivery polymer conjugate. Mice were euthanized at the indicated time after injection and total RNA was prepared from kidney tumor using Trizol reagent following manufacturer's recommendation. Relative HiF2α mRNA levels were determined by RT-qPCR as described below and compared to mice treated with delivery buffer (isotonic glucose) only.
In preparation for quantitative PCR, total RNA was isolated from tissue samples homogenized in TriReagent (Molecular Research Center, Cincinnati, Ohio) following the manufacturer's protocol. Approximately 500 ng RNA was reverse-transcribed using the High Capacity cDNA Reverse Transcription Kit (Life Technologies). For human (tumor) Hif2α (EPAS1) expression, pre-manufactured TaqMan gene expression assays for human Hif2α (Catalog #4331182) and CycA (PPIA) Catalog #: 4326316E) were used in biplex reactions in triplicate using TaqMan Gene Expression Master Mix (Life Technologies) or VeriQuest Probe Master Mix (Affymetrix). […]

In order of rising “Relative Expression day 4 (Hif2α mRNA in kidney tumor)” value:
1. AD01025 (antisense TCUAGCAACAAAACCUUAATT; sense UUAAGGUUUUGUUGCUAGAT; Hif2alpha RNAi agent antisense strand; modified_base 2,4,6,8,10,12,14,16,18 /mod_base = “2′-deoxy-2′-fluoro corresponding nucleoside”; modified_base 3,5,7,9,11,13,15,17,19 /mod_base = “2′-O-methyl corresponding nucleoside”; modified_base 21 /mod_base = “5′-phosphorothioate corresponding nucleotide”; Hif2alpha RNAi agent sense strand; modified_base 1,3,5,7,9,11,13,15,17,19 /mod_base = “2′-deoxy-2′-fluoro corresponding nucleoside”; modified_base 2,4,6,8,10,12,14,16,18 /mod_base = “2′-O-methyl corresponding nucleoside”; modified_base 20 /mod_base = “3′-3′-linked nucleotide”; modified_base 1 /mo)  0.34
2. AD01024 (antisense TCUAGCAACAAAACCUUAATT; sense UUAAGGUUUUGUUGCUAGAT; Hif2alpha RNAi agent antisense strand; modified_base 2,4,6,8,10,12,14,16,18 /mod_base = “2′-deoxy-2′-fluoro corresponding nucleoside”; modified_base 3,5,9,11,13,15,17,19 /mod_base = “2′-O-methyl corresponding nucleoside”; modified_base 7 /mod_base = “2′-3′ seco corresponding nucleotide”; modified_base 21 /mod_base = “5′-phosphorothioate corresponding nucleotide”; Hif2alpha RNAi agent sense strand; modified_base 1,3,5,7,9,11,13,15,17,19 /mod_base = “2′-deoxy-2′-fluoro corresponding nucleoside”; modified_base 2,4,6,8,10,12,14,16,18 /mod_base = “2′-O-methyl corresponding nucleoside”; modified_b)  0.51
3. AD01022 (antisense TGUAAAACAAUUGUGUACUTT; sense AGUACACAAUUGUUUUACAT; Hif2alpha RNAi agent antisense strand; modified_base 2,4,6,8,10,12,14,16,18 /mod_base = “2′-deoxy-2′-fluoro corresponding nucleoside”; modified_base 3,5,7,9,11,13,15,17,19 /mod_base = “2′-O-methyl corresponding nucleoside”; modified_base 21 /mod_base = “5′-phosphorothioate corresponding nucleotide”; Hif2alpha RNAi agent sense strand; modified_base 1,3,5,7,9,11,13,15,17,19 /mod_base = “2′-deoxy-2′-fluoro corresponding nucleoside”; modified_base 2,4,6,8,10,12,14,16,18 /mod_base = “2′-O-methyl corresponding nucleoside”; modified_base 20 /mod_base = “3′-3′-linked nucleotide”; modified_base 1 /mo)  0.53
4. AD01021 (antisense TGUAAAACAAUUGUGUACUTT; sense AGUACACAAUUGUUUUACAT; Hif2alpha RNAi agent antisense strand; modified_base 2,4,6,8,10,12,14,16,18 /mod_base = “2′-deoxy-2′-fluoro corresponding nucleoside”; modified_base 3,5,9,11,13,15,17,19 /mod_base = “2′-O-methyl corresponding nucleoside”; modified_base 7 /mod_base = “2′-3′ seco corresponding nucleotide”; modified_base 21 /mod_base = “5′-phosphorothioate corresponding nucleotide”; Hif2alpha RNAi agent sense strand; modified_base 1,3,5,7,9,11,13,15,17,19 /mod_base = “2′-deoxy-2′-fluoro corresponding nucleoside”; modified_base 2,4,6,8,10,12,14,16,18 /mod_base = “2′-O-methyl corresponding nucleoside”; modified_b)  0.90
5. AD01023 (antisense TCUAGCAACAAAACCUUAATT; sense UUAAGGUUUUGUUGCUAGAT; Hif2alpha RNAi agent antisense strand; modified_base 2,4,8,10,12,14,16,18 /mod_base = “2′-deoxy-2′-fluoro corresponding nucleoside”; modified_base 3,5,7,9,11,13,15,17,19 /mod_base = “2′-O-methyl corresponding nucleoside”; modified_base 6 /mod_base = “2′-3′ seco corresponding nucleotide”; modified_base 21 /mod_base = “5′-phosphorothioate corresponding nucleotide”; Hif2alpha RNAi agent sense strand; modified_base 1,3,5,7,9,11,13,15,17,19 /mod_base = “2′-deoxy-2′-fluoro corresponding nucleoside”; modified_base 2,4,6,8,10,12,14,16,18 /mod_base = “2′-O-methyl corresponding nucleoside”; modified_b)  0.93
6. AD01020 (antisense TGUAAAACAAUUGUGUACUTT; sense AGUACACAAUUGUUUUACAT; Hif2alpha RNAi agent antisense strand; modified_base 2,4,8,10,12,14,16,18 /mod_base = “2′-deoxy-2′-fluoro corresponding nucleoside”; modified_base 3,5,7,9,11,13,15,17,19 /mod_base = “2′-O-methyl corresponding nucleoside”; modified_base 6 /mod_base = “2′-3′ seco corresponding nucleotide”; modified_base 21 /mod_base = “5′-phosphorothioate corresponding nucleotide”; Hif2alpha RNAi agent sense strand; modified_base 1,3,5,7,9,11,13,15,17,19 /mod_base = “2′-deoxy-2′-fluoro corresponding nucleoside”; modified_base 2,4,6,8,10,12,14,16,18 /mod_base = “2′-O-methyl corresponding nucleoside”; modified_b)  0.94
7. AD01026 (antisense TAAAUCGUUACGUUGACAGTT; sense CUGUCAACGUAACGAUUUAT; Hif2alpha RNAi agent antisense strand; modified_base 2,4,8,10,12,14,16,18 /mod_base = “2′-deoxy-2′-fluoro corresponding nucleoside”; modified_base 3,5,7,9,11,13,15,17,19 /mod_base = “2′-O-methyl corresponding nucleoside”; modified_base 6 /mod_base = “2′-3′ seco corresponding nucleotide”; modified_base 21 /mod_base = “5′-phosphorothioate corresponding nucleotide”; Hif2alpha RNAi agent sense strand; modified_base 1,3,5,7,9,11,13,15,17,19 /mod_base = “2′-deoxy-2′-fluoro corresponding nucleoside”; modified_base 2,4,6,8,10,12,14,16,18 /mod_base = “2′-O-methyl corresponding nucleoside”; modified_b)  0.97
